# Test results from article PMC11842024, “Reversible male contraception by targeted inhibition of serine/threonine kinase 33” (Science (New York, N.Y.), 2024).
# Experiments:
# male mice = assay: Scanning electron microscopy (SEM) of sperm morphology; type: in vivo; conditions: protocol 2 at 63 days, n = 3
# Source text: Fig. 4. CDD-2807 treatment induces a reversible contraceptive effect. […] Fertility was restored to levels equal to those of controls after halting CDD-2807 treatment for 3 weeks in protocol 1; in protocol 2, fertility was restored an average of 53.5 ± 5.1 days after completion of CDD-2807 treatment compared to the controls (3.5 ± 0.2 days). (C) There are no observed morphological differences in testes from control and CDD-2807 treatment in mice from protocol 2 at 63 days; testis size of CDD-2807–treated mice in protocol 2 (87.13 ± 5.87 mg) was not statistically changed versus control males (111.10 ± 6.50 mg). […] (H) For SEM quantification, a minimum of 100 sperm per group were counted and determined to be either normal or abnormal (having head or tail defects). Counts were totaled and then turned into a percentage of normal versus abnormal sperm per group. By SEM analysis, 94.7 ± 2.7% of the sperm in the CDD-2807–treated mice (n = 3) in protocol 2 had morphologic defects at 63 days, including head and tail defects as shown, compared to only 10.9 ± 2.7% abnormal sperm for the controls (n = 3). Scale bars: 0.5 cm (C), […] (H). **P < 0.01, ***P < 0.001, ****P < 0.0001.
# [1] = CDD-2807 concentrations in mouse brain, liver, lung, and testis; type: in vivo, mice
# Description: Pharmacokinetics (PK) of CDD-2807 in mice. The pharmacokinetic studies (72) of CDD-2807 were performed at three doses via intraperitoneal (i.p.) injection and oral (p.o.) administration.
# CDD-2807 was dissolved in 10% Captisol containing 5% DMSO to prepare the solutions of 0.5 mg/mL, 2.5 mg/mL and 5.0 mg/mL. Twelve male mice (strain: C57BL/6NJ, 8−12 weeks) were divided equally and randomly into 4 groups (n = 3 for each dose). One group of mice were administered 5 mg/kg CDD-2807 (i.p., 10 µL/g of 0.5 mg/mL solution), the second group 25 mg/kg CDD-2807 (i.p., 10 µL/g of 2.5 mg/mL solution), the third group 5 mg/kg CDD-2807 (p.o., 10 µL/g of 0.5 mg/mL solution), and the fourth group 50 mg/kg CDD-2807 (p.o., 10 µL/g of 5.0 mg/mL solution). At 0, 5, 10, 15, 30 min, 1, 2, 4, 6, 8, 24 h post-dose, around 20 µL of blood was collected from the tail vein and anti-coagulated by heparin. The blood samples were centrifuged at 2000 g for 3 min at 4°C, and the plasma samples were transferred to tubes and stored at −80°C before analysis. All the samples were analyzed by the Thermo TSQ Quantis MS coupled with a Thermo Vanquish UHPLC (San Jose, CA). CDD-2807 was separated on a Luna C18 column (1 mm × 50 mm, 1.6 µm, Phenomenex, Torrance, CA), and eluted by a water-acetonitrile mobile phase system (both containing 0.1% formic acid, v/v) at the flow rate of 0.15 mL/min. CDD-2807 was monitored under the SRM mode coupled with a positive ESI source. The SRM ion pairs were 447→321 for CDD-2807. The ion spray voltage was set at 3500 V. High-purity nitrogen was used as the sheath gas (35 arbitrary unit), auxiliary gas (7 arbitrary unit), and high-purity argon was used as the collision gas. The temperatures of the ion transfer tube and the vaporizer were set at 300°C and 275°C, respectively. The concentration of CDD-2807 in plasma was quantified using individual calibration curves. The calibration curve was regressed with a weight of 1/x2 with high linearity (r2 >0.99). PK parameters, including half-time (t1/2), area under the plasma concentration– time curve from zero to infinity (AUC0–∞), clearance normalized by the bioavailability (CL/F), volume of distribution normalized by the bioavailability (Vd/F), and the mean residence time (MRT), were calculated by WinNonlin software (Certara, Princeton, NJ) by noncompartmental […]
# analysis. […]
# CDD-2807 concentrations in mouse brain, liver, lung, and testis. Tissue samples harvested from mice on day 45 of protocol 1 and at 24-hour, day 7, and day 63 of protocol 2 were weighed and snap-frozen in liquid nitrogen. The samples were stored at −80°C before analysis. Twenty-five mg of tissue was homogenized in 150 µL of 50% CH3OH, and 50 µL of homogenate was added to 200 µL of ice-cold CH3OH containing 0.1 µM of agomelatine (internal standard). The mixture was vortexed and centrifuged at 15000 g for 15 min, and supernatants were transferred into sample vials for analysis. CDD-2807 was analyzed by the same method used in the pharmacokinetic study. The concentration of CDD-2807 in the testis and brain was determined by […]
# using individual calibration curves established with the corresponding tissue homogenates from untreated mice. The calibration curve was regressed with a weight of 1/x2 with high linearity (r2 […]
# Spatial distribution of CDD-2807 in testis. The testis from the mice treated with CDD-2807 were attached to the Leica CM3050 S cryostat (Leica Biosystems, Deer Park, IL) with water and then sectioned at the thickness of 10 μm at −20°C. The sections were attached to electrically conductive glass slides coated with indium tin oxide ([…], 70-100 ohms, Delta Technologies, Loveland, CO). Tissue sections were sprayed with a matrix solution containing 35 mg/mL 2,5-dihydroxybenzoic acid (DHB, Sigma, St. Louis, MO) in 70% aqueous CH3OH with 0.1% trifluoroacetic acid using an HTX TM-Sprayer (HTX Technologies LLC, Carrboro, NC). Sprayer nozzle temperature was set at 70°C, tray temperature at 40°C, nozzle velocity at 1200 mm/min, […]
compound,measurement,setting,value
O=C(c1ccc2[nH]nc(C#Cc3ccccc3-c3ccccc3)c2c1)N1CC2(CCCNC2)C1 [CDD-2807],sperm with morphologic defects (abnormal sperm) by SEM,male mice,94.7 ± 2.7%
same,concentration at 7 day,"[1]; C57/129 hybrid, mouse, testis, intraperitoneal, 50 mg/kg/day over 7 days",~24000 ng/g
same,concentration at 45 day,"[1]; male, C57/129 hybrid, mouse, testis, ip, protocol 1 (15 mg/kg i.p. twice per day), day 45",89600 ± 14100 ng/g
same,concentration at 63 day,"[1]; male, C57/129 hybrid, mouse, testis, ip, protocol 2 (50 mg/kg i.p. once per day), day 63",114000 ± 7900 ng/g
same,CDD-2807 in brain,"[1]; protocol 1, day 45, collection 12 hours after dosing",0.28 ± 0.09 ng of CDD-2807 per milligram of tissue
same,CDD-2807 in lung,[1]; protocol 1 and 2 mice,low levels
same,CDD-2807 in brain,"[1]; protocol 2, day 63, collection 24 hours after dosing",undetectable
